Read-outs that look alike come from different tables or passages of the source. Starred links: 1 amine or outer side, 2 acyl side, 3 side chain; linkers in the order of their positions; H or OH if unused. Positions of bridges follow the written chain, without caps; N, C: chain ends. Non-standard residues stand in square brackets, D forms with d. Residues, ends and D or L forms follow the SMILES beside them. Groups on a side chain read outwards from the residue. *: point of attachment. Trp(1-Me) = Cn1cc(C[C@H](N)C(=O)O)c2ccccc21; Abu(4-yl) = O=C([C@H](CC[*:3])N[*:1])[*:2]; C18 diacid = O=C(O)CCCCCCCCCCCCCCCCC(=O)*; γGlu = O=C(O)[C@H](CCC(=O)[*:2])N[*:1]; NMeI = CC[C@H](C)[C@H](NC)C(=O)O; AEEA = NCCOCCOCC(=O)O; Sar = CNCC(=O)O
Experiments:
[1] = tested on: classical complement pathway; experiment: In vitro haemolysis assay (inhibition of classical complement pathway); format: cell-based, human
How it was run: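 Serially diluted compound (9 points) was preincubated 15 min at room temperature with diluted human serum, titrated per batch to give 70-90% maximal haemolysis, in Tris/casein buffer pH 7.4 with Mg2+/Ca2+. Antibody-sensitized sheep erythrocytes were then added for 30 min at 37° C, and the reaction was stopped with EDTA. Haemolysis was read at A405, with IC50 from 4PL fit.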

Human C3 = biological target: T1, Human C3 (Homo sapiens, UniProt P01024); experiment: Affinity measurement by surface plasmon resonance (SPR) with immobilized C3; format: binding; details: Table 7; immobilized C3, 25° C., pH 7.4
T1 construct: purchased Complement tech A1 13c (so in the source)
Description: Surface plasmon resonance (SPR) was used to characterize peptides with respect to their binding affinity (Kd) for C3. Human C3 (Complement tech cat #A1 13c) was immobilised on individual flow cells of CM5 sensor chips (GE Healthcare) using standard amine coupling to a density of approximately 3000 resonance units (RU) in a buffer consisting of 10 mM phosphate pH 7.4, 150 mM NaCl, 0.05% Tween20. For interaction experiments a multi-cycle experiment approach was used and performed using either a Biacore™ T200 or Biacore™ X100 instrument (GE Healthcare) at 25° C. Peptides were injected in increasing concentration series (5-8 different concentrations) for 60-120 s at a flow rate of 30 μL/min in a buffer consisting of 10 mM Tris buffer at pH 7.4, with 150 mM NaCl and 0.05% Tween20. This was followed by a dissociation period for up to 10 min. […] Sensorgrams were double-referenced (reference surface, blanks) prior to analysis of the kinetic profiles by globally fitting data to a 1:1 Langmuir binding model to obtain association and dissociation rates for calculation of the equilibrium dissociation constant Kd. Each peptide was tested at in at least 2 independent experiments.

[2] = Table 3, human serum, sensitized sheep red blood cells, read-out: IC50[nM], in vitro analysis of inhibition of hemolysis
[3] = Table 4, valine 3 versus isoleucine 3 pairs, read-out: CP hemolysis IC50

| Compound | IC50 [1, 2] | Kd (Human C3) | IC50 [1, 3] | IC50 ([1]; Table 5, different residues at position 3 of Ac-IC(1)XWQDWGEHRC(1)T-NH2, read-out: IC50, CP hemolysis) |
| --- | --- | --- | --- | --- |
| CC[C@H](C)[C@@H]1NC(=O)[C@@H](NC(=O)[C@H](Cc2ccccc2)NC(=O)[C@H](CCC(=O)O)NC(C)=O)CSCC[C@@H](C(=O)N[C@@H](CCC(=O)O)C(=O)NCC(=O)N[C@@H](CCC(=O)O)C(=O)N[C@@H](CCCCNC(=O)CC[C@H](NC(=O)CNC(=O)CC[C@H](NC(=O)CCCCCCCCCCCCCCCCC(=O)O)C(=O)O)C(=O)O)C(N)=O)NC(=O)[C@H](CCCNC(=N)N)NC(=O)[C@H](Cc2c[nH]cn2)NC(=O)[C@H](CCC(=O)O)NC(=O)CNC(=O)[C@H](Cc2c[nH]c3ccccc23)NC(=O)[C@H](CC(=O)O)NC(=O)[C@H](CCC(N)=O)NC(=O)[C@H](Cc2cn(C)c3ccccc23)NC1=O [Compound 161, Ac-EFA(1)I[1-Me-Trp]QDWGEHRhC(1)EGE-K([17-carboxy-heptadecanoyl][γGlu]G[γGlu])-NH2] (Ac-EFCI[Trp(1-Me)]QDWGEHR[Abu(4-yl)]EGEK([γGlu-Gly-γGlu-C18 diacid])-NH2; thioether 3-13) | < 100 nM | 0.0034 µM |  |  |
| CC[C@H](C)[C@H](NC(C)=O)C(=O)N[C@H]1CSSC[C@@H](C(=O)N[C@H](C(N)=O)[C@@H](C)O)NC(=O)[C@H](CCCNC(=N)N)NC(=O)[C@H](Cc2c[nH]cn2)NC(=O)[C@H](CCC(=O)O)NC(=O)CNC(=O)[C@H](Cc2c[nH]c3ccccc23)NC(=O)[C@H](CC(=O)O)NC(=O)[C@H](CCC(N)=O)NC(=O)[C@H](Cc2cn(C)c3ccccc23)NC(=O)[C@H]([C@@H](C)CC)NC1=O [Compound 4] (Ac-ICI[Trp(1-Me)]QDWGEHRCT-NH2; disulfide 2-12) | < 100 nM | 0.0015 µM |  |  |
| CC[C@H](C)[C@@H]1NC(=O)[C@@H](NC(=O)[C@H](Cc2ccccc2)NC(=O)[C@H](CCC(=O)O)NC(=O)[C@H](CO)NC(C)=O)CSSC[C@@H](C(=O)N(C)CC(=O)N[C@@H](CCC(=O)O)C(=O)NCC(=O)N[C@@H](C)C(=O)N[C@@H](CCCCNC(=O)COCCOCCNC(=O)CC[C@H](NC(=O)COCCOCCNC(=O)CNC(=O)CC[C@H](NC(=O)CCCCCCCCCCCCCCCCC(=O)O)C(=O)O)C(=O)O)C(N)=O)NC(=O)[C@H](CCCNC(=N)N)NC(=O)[C@H](Cc2c[nH]cn2)NC(=O)[C@H](CCC(=O)O)NC(=O)CNC(=O)[C@H](Cc2c[nH]c3ccccc23)NC(=O)[C@H](CCC(=O)O)NC(=O)[C@H](CCC(N)=O)NC(=O)[C@H](Cc2cn(C)c3ccccc23)NC1=O [Compound 120] (Ac-SEFCI[Trp(1-Me)]QEWGEHRC[Sar]EGAK([AEEA-γGlu-AEEA-Gly-γGlu-C18 diacid])-NH2; disulfide 4-14) | < 250 nM | 0.028 µM |  |  |
| CC[C@H](C)[C@H](NC(C)=O)C(=O)N[C@H]1CSSC[C@@H](C(=O)N[C@H](C(N)=O)[C@@H](C)O)NC(=O)[C@H](CCCNC(=N)N)NC(=O)[C@H](Cc2c[nH]cn2)NC(=O)[C@H](CCC(=O)O)NC(=O)CNC(=O)[C@H](Cc2c[nH]c3ccccc23)NC(=O)[C@H](CC(=O)O)NC(=O)[C@H](CCC(N)=O)NC(=O)[C@H](Cc2c[nH]c3ccccc23)NC(=O)[C@H]([C@@H](C)CC)NC1=O [Compound 2] (Ac-ICIWQDWGEHRCT-NH2; disulfide 2-12) | < 100 nM | 0.016 µM | 94 nM | < 100 nM |
| CC[C@H](C)[C@@H]1NC(=O)[C@@H](NC(=O)[C@H](Cc2ccccc2)NC(=O)[C@H](CCC(=O)O)NC(=O)[C@H](CO)NC(C)=O)CCSC[C@@H](C(=O)N(C)CC(=O)N[C@@H](CCC(=O)O)C(=O)NCC(=O)N[C@@H](CCC(=O)O)C(=O)NCCOCCOCC(=O)N[C@@H](CCC(=O)O)C(=O)N[C@@H](CO)C(=O)N[C@@H](CCCCNC(=O)CC[C@H](NC(=O)CNC(=O)CC[C@H](NC(=O)CCCCCCCCCCCCCCCCC(=O)O)C(=O)O)C(=O)O)C(N)=O)NC(=O)[C@H](CCCNC(=N)N)NC(=O)[C@H](Cc2c[nH]cn2)NC(=O)[C@H](CCC(=O)O)NC(=O)CN(C)C(=O)[C@H](Cc2c[nH]c3ccccc23)NC(=O)[C@H](CC(=O)O)NC(=O)[C@H](CCC(N)=O)NC(=O)[C@H](Cc2cn(C)c3ccccc23)NC1=O [Compound 166, Ac-SEFhC(1)I[1-Me-Trp]QDW[Sar]EHRA(1)[Sar]EGE[Peg3]ES-K([17-carboxy-heptadecanoyl][γGlu]G[γGlu])-NH2] (Ac-SEF[Abu(4-yl)]I[Trp(1-Me)]QDW[Sar]EHRC[Sar]EGE[AEEA]ESK([γGlu-Gly-γGlu-C18 diacid])-NH2; thioether 4-14) | < 100 nM | 0.0065 µM |  |  |
| CC[C@H](C)[C@H](NC(C)=O)C(=O)N[C@H]1CSSC[C@@H](C(=O)N[C@@H](CO)C(N)=O)NC(=O)[C@H](CCCNC(=N)N)NC(=O)[C@H](Cc2c[nH]cn2)NC(=O)[C@H](CCC(=O)O)NC(=O)CNC(=O)[C@H](Cc2c[nH]c3ccccc23)NC(=O)[C@H](CC(=O)O)NC(=O)[C@H](CCC(N)=O)NC(=O)[C@H](Cc2c[nH]c3ccccc23)NC(=O)[C@H]([C@@H](C)CC)NC1=O [Compound 21] (Ac-ICIWQDWGEHRCS-NH2; disulfide 2-12) | < 100 nM | 0.016 µM | 77 nM |  |
| CC[C@H](C)[C@@H]1NC(=O)[C@@H](NC(=O)[C@H](Cc2ccccc2)NC(=O)[C@H](CCC(=O)O)NC(=O)[C@H](CO)NC(C)=O)CSCC[C@@H](C(=O)N[C@H](C(=O)NCC(=O)N[C@@H](C)C(=O)N[C@@H](CCC(=O)O)C(=O)N[C@@H](CO)C(N)=O)[C@@H](C)O)NC(=O)[C@H](CCCNC(=N)N)NC(=O)[C@H](Cc2c[nH]cn2)NC(=O)[C@H](CCC(=O)O)NC(=O)CNC(=O)[C@H](Cc2c[nH]c3ccccc23)NC(=O)[C@H](CC(=O)O)NC(=O)[C@H](CCC(N)=O)NC(=O)[C@H](Cc2cn(C)c3ccccc23)NC1=O [Compound 151, Ac-SEFA(1)I[1-Me-Trp]QDWGEHRhC(1)TGAES-NH2] (Ac-SEFCI[Trp(1-Me)]QDWGEHR[Abu(4-yl)]TGAES-NH2; thioether 4-14) | < 100 nM | 0.0014 µM |  |  |
| CC[C@H](C)[C@H](NC(=O)[C@H](N)Cc1ccc(O)cc1)C(=O)N[C@H]1CSSC[C@@H](C(=O)N(C)[C@H](C(N)=O)[C@@H](C)CC)NC(=O)[C@H](CCCNC(=N)N)NC(=O)[C@H](Cc2c[nH]cn2)NC(=O)[C@H](C)NC(=O)CN(C)C(=O)[C@H](Cc2c[nH]c3ccccc23)NC(=O)[C@H](CC(=O)O)NC(=O)[C@H](CCC(N)=O)NC(=O)[C@H](Cc2cn(C)c3ccccc23)NC(=O)[C@H]([C@@H](C)CC)NC1=O [Compound 48, H-{d}Y1C(1)I[1-Me-Trp]QDW[Sar]AHRC(1)[N-Me-Ile]-NH2] (H-[dY]ICI[Trp(1-Me)]QDW[Sar]AHRC[NMeI]-NH2; disulfide 3-13) | < 100 nM | 0.00012 µM |  |  |
| CC[C@H](C)[C@@H]1NC(=O)[C@@H](NC(=O)[C@H](Cc2ccc(O)cc2)NC(=O)[C@H](CCC(=O)O)NC(=O)[C@H](CO)NC(C)=O)CSSC[C@@H](C(=O)N(C)CC(=O)N[C@@H](CCC(=O)O)C(=O)N[C@@H](CCCCN)C(=O)N[C@@H](CCC(=O)N[C@@H](C)C(=O)N[C@@H](CCCCNC(=O)COCCOCCNC(=O)CC[C@H](NC(=O)COCCOCCNC(=O)CNC(=O)CC[C@H](NC(=O)CCCCCCCCCCCCCCCCC(=O)O)C(=O)O)C(=O)O)C(N)=O)C(=O)O)NC(=O)[C@H](CCCNC(=N)N)NC(=O)[C@H](Cc2c[nH]cn2)NC(=O)[C@H](CCC(=O)O)NC(=O)CN(C)C(=O)[C@H](Cc2c[nH]c3ccccc23)NC(=O)[C@H](CCC(=O)O)NC(=O)[C@H](CCC(N)=O)NC(=O)[C@H](Cc2cn(C)c3ccccc23)NC1=O [Compound 121, Ac-SEYC(1)I[1-Me-Trp]QEW[Sar]EHRC(1)[Sar]K[γGlu]A-K([17-carboxy-heptadecanoyl][γGlu]G[Peg3][γGlu][Peg3])-NH2] (Ac-SEYCI[Trp(1-Me)]QEW[Sar]EHRC[Sar]EK[γGlu]AK([AEEA-γGlu-AEEA-Gly-γGlu-C18 diacid])-NH2; disulfide 4-14) | < 250 nM | 0.03 µM |  |  |
| CC[C@H](C)[C@@H]1NC(=O)[C@@H](NC(=O)[C@H](Cc2ccccc2)NC(=O)[C@H](CCC(=O)O)NC(=O)[C@H](CO)NC(C)=O)CSSC[C@@H](C(=O)N(C)CC(=O)N[C@@H](CCC(=O)O)C(=O)N[C@@H](C)C(N)=O)NC(=O)[C@H](CCCNC(=N)N)NC(=O)[C@H](Cc2c[nH]cn2)NC(=O)[C@H](CCC(=O)O)NC(=O)CNC(=O)[C@H](Cc2c[nH]c3ccccc23)NC(=O)[C@H](CC(=O)O)NC(=O)[C@H](CCC(N)=O)NC(=O)[C@H](Cc2cn(C)c3ccccc23)NC1=O [Compound 75] (Ac-SEFCI[Trp(1-Me)]QDWGEHRC[Sar]EA-NH2; disulfide 4-14) | < 100 nM | 0.0015 µM |  |  |
| CC[C@H](C)[C@@H]1NC(=O)[C@@H](NC(=O)CN(C)C(=O)[C@H](CCC(=O)O)NC(=O)[C@H](CO)NC(C)=O)CSSC[C@@H](C(=O)N[C@H](C(=O)N[C@@H](CCC(=O)O)C(=O)N[C@@H](C)C(N)=O)[C@@H](C)O)NC(=O)[C@H](CCCNC(=N)N)NC(=O)[C@H](Cc2c[nH]cn2)NC(=O)[C@H](CCC(=O)O)NC(=O)CNC(=O)[C@H](Cc2c[nH]c3ccccc23)NC(=O)[C@H](CC(=O)O)NC(=O)[C@H](CCC(N)=O)NC(=O)[C@H](Cc2cn(C)c3ccccc23)NC1=O [Compound 82] (Ac-SE[Sar]CI[Trp(1-Me)]QDWGEHRCTEA-NH2; disulfide 4-14) | < 100 nM | 0.0054 µM |  |  |
